Measured values from ChEMBL document CHEMBL1144074, “Glycoside primers of Psittacanthus cucullaris” (J Nat Prod, 1999).
Activity calls are given as the source filed them. No cut-off for these calls is given here.

Test system: CHO
Assay: Stimulation of glycosaminoglycan chains formation in xylosyltransferase-deficient CHO pgsA-745 cells by liquid scintillation spectrophotometry
Format: functional, cell-based
Settings: Cricetulus griseus

Structure (SMILES)	Activity
COc1cc2c(=O)oc3c(OC)c(O[C@@H]4OC[C@@H](O)[C@H](O)[C@H]4O)cc4c(=O)oc(c1OC)c2c34	Active
COc1c(O)cc2c(=O)oc3c(OC)c(O[C@@H]4OC[C@@H](O)[C@H](O)[C@H]4O)cc4c(=O)oc1c2c34	Active
